These results are taken from patent publication US4447422A, “Penicillins and compositions containing them” (Beecham Group p.1.c., priority 1981, dated 1984).

Structures are written as SMILES. ≈ marks a conversion by molar mass, not a printed value. Where a name gives a salt, the structure may show the parent alone.

What is called MIC is the lowest concentration that inhibits growth of the organism.

In one test the test system is Staph aureus Oxford. Put plainly: antibacterial activity (MIC). Type of test: cell-based. The following applies: Staphylococcus aureus; Table 2; gram positive organism Staph. aureus Oxford; read-out: MIC.
Another test concerns E coli NCTC 10418. Put plainly: antibacterial activity (MIC). Type of test: cell-based. Particulars: Escherichia coli, NCTC10418; Table 2; gram negative organism E. coli NCTC 10418.

For `CCSCCNc1ncc(C(=O)N[C@@H](C(=O)N[C@@H]2C(=O)N3[C@@H]2SC(C)(C)[C@@H]3C(=O)O)c2ccc(O)cc2)c(O)n1` [Example 14, 6β-[D-2-(2-[2-(ethylthio)ethyl-1-amino]-4-hydroxypyrimidine-5-carbonylamino)-2-(4-hydroxyphenyl)]acetamidopenicillanic acid, disodium salt], the MIC in the test with Staph aureus Oxford stood at 1.2 µg/mL; against E coli NCTC 10418 it was 2.5 µg/mL.
The matching figures for `CC1(C)S[C@@H]2[C@H](NC(=O)[C@H](NC(=O)c3cnc(NCc4ccccc4)nc3O)c3ccc(O)cc3)C(=O)N2[C@H]1C(=O)O` [Example 4, 6β-[D-2-(2-Benzylamino-4-hydroxypyrimidine-5-carbonylamino)-2-(4-hydroxyphenyl)] acetamido penicillanic acid disodium salt]: 1.25 µg/mL and 5 µg/mL.
The like results for `CCCCNc1ncc(C(=O)N[C@@H](C(=O)N[C@@H]2C(=O)N3[C@@H]2SC(C)(C)[C@@H]3C(=O)O)c2ccc(O)cc2)c(O)n1` [Example 17, 6β-[D-2-(2-n-Butylamino-4-hydroxypyrimidine-5-carbonylamino)-2-(4-hydroxyphenyl)] acetamido penicillanic acid, disodium salt] were, in that order, 2.5 µg/mL and 5 µg/mL.
As for `CC1(C)S[C@@H]2[C@H](NC(=O)[C@H](NC(=O)c3cnc(NCc4ccco4)nc3O)c3ccccc3)C(=O)N2[C@H]1C(=O)O` [Example 10, 6β-[D-2-(2-Furfurylamino-4-hydroxypyrimidine-5-carbonylamino)-2-phenyl] acetamido penicillanic acid, disodium salt], the values for the MIC in the test on Staph aureus Oxford and in the test with E coli NCTC 10418 were 1.2 µg/mL and 5 µg/mL, respectively.
Consider `CC(C)COC(=O)Nc1ncc(C(=O)N[C@@H](C(=O)N[C@@H]2C(=O)N3[C@@H]2SC(C)(C)[C@@H]3C(=O)O)c2ccccc2)c(O)n1` [Example 24, 6β-D-2-(2-Isobutyloxycarbonylamino-4-hydroxypyrimidine-5-carbonylamino)-2-phenyl]acetamido penicillanic acid, disodium salt], for which the MIC in the test with Staph aureus Oxford was 0.5 µg/mL; against E coli NCTC 10418, 5 µg/mL.
The like results for `CC1(C)S[C@@H]2[C@H](NC(=O)[C@H](NC(=O)c3cnc(NC(=O)OCc4ccccc4)nc3O)c3ccccc3)C(=O)N2[C@H]1C(=O)O` [Example 25, 6β-D-2-(2-benzyloxycarbonylamino-4-hydroxypyrimidine-5-carbonylamino-2-phenyl] acetamido penicillanic acid, disodium salt] were, in that order, 0.2 µg/mL and 2.5 µg/mL.
The like results for `CC1(C)S[C@@H]2[C@H](NC(=O)[C@H](NC(=O)c3cnc(NCc4ccc(Cl)cc4)nc3O)c3ccccc3)C(=O)N2[C@H]1C(=O)O` [Example 6, 6β-D-[2-(2-[4Chlorobenzylamino]-4-hydroxypyrimidine-5-carbonylamino)-2-phenyl] acetamido penicillanic acid] were, in that order, 0.2 µg/mL (≈ 0.327 µM) and 5 µg/mL (≈ 8.18 µM).
The like results for `CC1(C)S[C@@H]2[C@H](NC(=O)[C@H](NC(=O)c3cnc(NCCCc4ccccc4)nc3O)c3ccccc3)C(=O)N2[C@H]1C(=O)O` [Example 3, 6β-[D-2-(2-(3-phenylpropyl-1-amino)-4-hydroxypyrimidine-5-carbonylamino)-2-phenyl] acetamido penicillanic acid] were, in that order, 1.2 µg/mL (≈ 1.98 µM) and 5 µg/mL (≈ 8.27 µM).
For `CNc1ncc(C(=O)N[C@@H](C(=O)N[C@@H]2C(=O)N3[C@@H]2SC(C)(C)[C@@H]3C(=O)O)c2ccccc2)c(O)n1` [Example 11, 6β-D-2-(2-Methylamino-4-hydroxypyrimidine-5-carbonylamino)-2-phenyl] acetamido penicillanic acid, disodium salt], the minimum inhibitory concentration (MIC) amounted to 2.5 µg/mL with Staph aureus Oxford and 25 µg/mL in the test on E coli NCTC 10418.
The like results for `CC1(C)S[C@@H]2[C@H](NC(=O)[C@H](NC(=O)c3cnc(NCCc4ccccc4)nc3O)c3ccc(O)cc3)C(=O)N2[C@H]1C(=O)O` [Example 5, 6β-[D-2-(2-(2-phenylethyl-1-amino)-4-hydroxypyrimidine-5-carbonylamino)-2-(4-hydroxyphenyl)] acetamido penicillanic acid] were, in that order, 1.2 µg/mL (≈ 1.98 µM) and 5 µg/mL (≈ 8.24 µM).
For `CCCCCCCCNc1ncc(C(=O)N[C@@H](C(=O)N[C@@H]2C(=O)N3[C@@H]2SC(C)(C)[C@@H]3C(=O)O)c2ccccc2)c(O)n1` [Example 20, 6β-[D-2-(2-n-Octylamino-4-hydroxypyrimidine-5-carbonylamino)-2-phenyl] acetamido penicillanic acid, disodium salt], the MIC in the test on Staph aureus Oxford is 2.5 µg/mL; with E coli NCTC 10418, 10 µg/mL.
The like results for `CC1(C)S[C@@H]2[C@H](NC(=O)[C@H](NC(=O)c3cnc(NC(=O)c4ccccc4)nc3O)c3ccccc3)C(=O)N2[C@H]1C(=O)O` [Example 23, 6β-[D-2-(2-benzoylamino-4-hydroxypyrimidine-5-carbonylamino)-2-phenyl] acetamido penicillanic acid, disodium salt] were, in that order, 0.5 µg/mL and 5 µg/mL.
Take `CCCCCCNc1ncc(C(=O)N[C@@H](C(=O)N[C@@H]2C(=O)N3[C@@H]2SC(C)(C)[C@@H]3C(=O)O)c2ccccc2)c(O)n1` [Example 19, 6β-[D-2-(2-n-hexylamino-4-hydroxypyrimidine-5-carbonylamino)-2-phenyl] acetamido penicillanic acid, disodium salt]: the MIC with Staph aureus Oxford was found to be 0.5 µg/mL; in the test with E coli NCTC 10418, 1.2 µg/mL.
The like results for `COc1ccc(CNc2ncc(C(=O)N[C@@H](C(=O)N[C@@H]3C(=O)N4[C@@H]3SC(C)(C)[C@@H]4C(=O)O)c3ccccc3)c(O)n2)cc1` [Example 9, 6β-[D-2-(2-[4-Methoxybenzylamino]-4-hydroxypyrimidine-5-carbonylamino)-2-phenyl] acetamido penicillanic acid, disodium salt] were, in that order, 0.25 µg/mL and 5 µg/mL.
The like results for `COCCCNc1ncc(C(=O)N[C@@H](C(=O)N[C@@H]2C(=O)N3[C@@H]2SC(C)(C)[C@@H]3C(=O)O)c2ccccc2)c(O)n1` [Example 12, 6β-[D-2-(2-[3-methoxypropyl-1-amino]-4-hydroxypyrimidine-5-carbonylamino)-2-phenyl] acetamido penicillanic acid, disodium salt] were, in that order, 1.2 µg/mL and 5 µg/mL.
The like results for `COCCNc1ncc(C(=O)N[C@@H](C(=O)N[C@@H]2C(=O)N3[C@@H]2SC(C)(C)[C@@H]3C(=O)O)c2ccccc2)c(O)n1` [Example 13, 6β-[D-2-(2-Methoxyethyl-1-amino]-4-hydroxypyrimidine-5-carbonylamino)-2-phenyl] acetamido penicillanic acid, disodium salt] were, in that order, 0.5 µg/mL and 5 µg/mL.
For the compound `CCCCCNc1ncc(C(=O)N[C@@H](C(=O)N[C@@H]2C(=O)N3[C@@H]2SC(C)(C)[C@@H]3C(=O)O)c2ccccc2)c(O)n1` [Example 18, 6β-[D-2-(2-n-Pentylamino-4-hydroxypyrimidine-5-carbonylamino)-2-phenyl] acetamido penicillanic acid, disodium salt], the minimal inhibitory concentration (MIC) in the test with Staph aureus Oxford and with E coli NCTC 10418 was 1.25 µg/mL in each case.
